Data from patent publication US20240343733A1, “COMPOUNDS FOR TARGETING DEGRADATION OF IRAK4 PROTEINS” (BIOGEN MA INC., priority 2021, published 2024).

Tests used:
IRAK4 = biological target: T1, IRAK4 (Homo sapiens, UniProt Q9NWZ3); assay: IRAK4 Degradation Assay, HiBiT Method; format: cell-based; details: 293T cells expressing HiBiT-tagged IRAK4, 6 hours
T1 construct: 293Tcells expressing HiBiT-tagged IRAK4 were then added into 384-well plates
T1 sequence (Q9NWZ3 1-460): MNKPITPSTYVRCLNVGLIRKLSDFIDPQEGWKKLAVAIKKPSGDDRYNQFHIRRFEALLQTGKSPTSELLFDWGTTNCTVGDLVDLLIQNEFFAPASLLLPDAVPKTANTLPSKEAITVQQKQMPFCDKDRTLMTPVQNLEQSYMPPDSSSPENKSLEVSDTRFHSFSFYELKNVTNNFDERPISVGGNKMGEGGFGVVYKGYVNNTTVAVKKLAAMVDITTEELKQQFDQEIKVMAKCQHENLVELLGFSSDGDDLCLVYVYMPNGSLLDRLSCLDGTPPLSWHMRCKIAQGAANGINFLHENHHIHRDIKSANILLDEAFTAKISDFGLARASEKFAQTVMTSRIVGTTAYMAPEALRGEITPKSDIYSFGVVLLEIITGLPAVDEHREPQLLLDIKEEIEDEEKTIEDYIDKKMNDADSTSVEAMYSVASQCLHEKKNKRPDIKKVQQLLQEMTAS
How it was run: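 293T cells with HiBiT knocked in at the C-terminus of endogenous IRAK4, 10,000 per well, treated 6 h at 37 °C with an 11-point half-log series ([…]), in duplicate. Remaining IRAK4 read by Nano-Glo HiBiT lytic luminescence against DMSO-only and media-only controls.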

IKZF1 = biological target: T2, IKZF1 (Homo sapiens, UniProt Q13422); assay: IKZF1 Degradation Assay, HiBiT Method; format: cell-based; details: for DC50: NCIH929 cells expressing HiBiT-tagged IKZF1, 6 hours, top concentration 10 μM
T2 construct: endogenously expressing IKZF1 with HiBiT fusion tag via CRISPR
T2 sequence (Q96SW2 whole entry partner, the tested form may be a part): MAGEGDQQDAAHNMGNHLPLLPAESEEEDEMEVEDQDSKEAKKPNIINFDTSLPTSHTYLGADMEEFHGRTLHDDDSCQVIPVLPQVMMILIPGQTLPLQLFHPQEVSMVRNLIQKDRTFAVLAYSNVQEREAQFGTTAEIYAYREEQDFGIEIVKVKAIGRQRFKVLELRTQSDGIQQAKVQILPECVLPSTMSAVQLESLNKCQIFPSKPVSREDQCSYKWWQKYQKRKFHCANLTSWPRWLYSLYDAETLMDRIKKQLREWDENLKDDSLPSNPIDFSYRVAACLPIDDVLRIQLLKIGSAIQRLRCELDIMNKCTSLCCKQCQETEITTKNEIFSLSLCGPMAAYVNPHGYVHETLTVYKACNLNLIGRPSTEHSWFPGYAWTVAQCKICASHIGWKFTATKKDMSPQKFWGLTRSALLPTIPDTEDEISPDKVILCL
T2 sequence (Q16531 whole entry partner, the tested form may be a part): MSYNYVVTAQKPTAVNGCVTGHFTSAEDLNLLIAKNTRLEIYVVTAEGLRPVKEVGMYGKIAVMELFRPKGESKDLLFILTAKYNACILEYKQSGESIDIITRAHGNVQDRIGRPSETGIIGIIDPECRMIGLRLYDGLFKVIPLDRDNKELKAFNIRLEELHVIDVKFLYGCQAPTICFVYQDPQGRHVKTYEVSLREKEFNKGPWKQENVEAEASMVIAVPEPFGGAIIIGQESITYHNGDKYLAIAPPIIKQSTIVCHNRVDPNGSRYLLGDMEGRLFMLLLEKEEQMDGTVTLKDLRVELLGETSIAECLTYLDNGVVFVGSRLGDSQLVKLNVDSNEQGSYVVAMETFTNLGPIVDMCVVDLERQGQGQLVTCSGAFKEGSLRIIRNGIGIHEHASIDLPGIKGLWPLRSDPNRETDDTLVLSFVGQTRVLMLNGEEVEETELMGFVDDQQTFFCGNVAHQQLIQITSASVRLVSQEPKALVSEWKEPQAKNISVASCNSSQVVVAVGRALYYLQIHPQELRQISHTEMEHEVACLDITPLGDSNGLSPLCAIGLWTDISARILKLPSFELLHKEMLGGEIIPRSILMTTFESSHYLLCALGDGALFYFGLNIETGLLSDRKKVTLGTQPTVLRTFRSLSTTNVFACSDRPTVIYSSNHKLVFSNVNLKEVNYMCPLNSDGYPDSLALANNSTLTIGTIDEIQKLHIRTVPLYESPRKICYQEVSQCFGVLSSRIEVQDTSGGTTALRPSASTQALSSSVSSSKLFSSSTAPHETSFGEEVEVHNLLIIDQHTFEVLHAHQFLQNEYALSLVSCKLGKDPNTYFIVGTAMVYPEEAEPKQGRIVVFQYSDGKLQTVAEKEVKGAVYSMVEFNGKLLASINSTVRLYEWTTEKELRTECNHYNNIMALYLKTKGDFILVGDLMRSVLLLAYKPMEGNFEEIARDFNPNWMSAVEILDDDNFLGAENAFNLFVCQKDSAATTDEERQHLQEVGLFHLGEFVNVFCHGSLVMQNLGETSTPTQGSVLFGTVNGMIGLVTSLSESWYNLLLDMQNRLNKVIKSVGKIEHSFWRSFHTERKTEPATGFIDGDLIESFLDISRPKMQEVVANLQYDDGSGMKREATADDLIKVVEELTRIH
T2 sequence (Q13422 whole entry, the tested form may be a part): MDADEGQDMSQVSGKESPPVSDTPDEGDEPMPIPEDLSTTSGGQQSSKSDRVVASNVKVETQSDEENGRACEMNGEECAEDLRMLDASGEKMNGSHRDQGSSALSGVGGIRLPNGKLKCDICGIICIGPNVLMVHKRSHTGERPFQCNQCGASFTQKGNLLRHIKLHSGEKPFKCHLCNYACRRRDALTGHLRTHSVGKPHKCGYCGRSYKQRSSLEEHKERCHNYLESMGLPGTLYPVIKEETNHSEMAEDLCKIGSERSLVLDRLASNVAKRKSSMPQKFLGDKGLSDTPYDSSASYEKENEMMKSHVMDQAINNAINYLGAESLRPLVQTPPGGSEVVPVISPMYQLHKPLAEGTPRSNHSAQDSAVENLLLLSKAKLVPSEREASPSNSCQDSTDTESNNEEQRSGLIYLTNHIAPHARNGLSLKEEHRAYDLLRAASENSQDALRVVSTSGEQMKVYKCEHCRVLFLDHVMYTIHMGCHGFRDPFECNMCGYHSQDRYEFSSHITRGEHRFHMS
Description: Assay 2. IKZF1 Degradation Assay, HiBiT Method
Selected compounds of this disclosure were tested in an IKZF1 degradation assay using the HiBiT Method.
RPMI no-phenol red medium and fetal bovine serum (FBS) were purchased from Gibco (Grand Island, NY, USA). Nano-Glo® HiBiT Lytic Assay System was purchased from Promega (Madison, WI, USA). […] Cell culture flasks and 384-well microplates were acquired from VWR (Radnor, PA, USA).
IKZF1 degradation was determined based on quantification of luminescent signal using Nano-Glo® HiBiT Lytic Assay kit. […] NCIH929 cells expressing HiBiT-tagged IKZF1 were added into 384-well plates in RPMI medium containing 10% FBS and 0.05 mM 2-mercaptoethanol at a cell density of 15000 cells per well. The plates were kept at 37° C. with 5% CO2 for 6 hours. Cells treated in the absence of the test compound were the negative control and wells containing media only were the positive control. After 6-hour incubation, Nano-Glo® HiBiT Lytic Assay reagents were added to the designated wells. Luminescence was acquired on EnVision® Multilabel Reader (PerkinElmer, Santa Clara, CA, USA).

## CC(C)Oc1cc2nn([C@H]3CC[C@H](CN4CCOC[C@H]4Cc4ccc(OC5CCC(=O)NC5=O)cc4)CC3)cc2cc1C(=O)Nc1cccn([C@H]2C[C@H]2F)c1=O (stereo partly drawn) [Example 128, 2-((1R,4S)-4-(((3R)-3-(4-((2,6-dioxopiperidin-3-yl)oxy)benzyl)morpholino)methyl)cyclohexyl)-N-(1-((1S,2R)-2-fluorocyclopropyl)-2-oxo-1,2-dihydropyridin-3-yl)-6-isopropoxy-2H-indazole-5-carboxamide]
IRAK4
  DC50: < 10 nM
IKZF1
  DC50: > 10000 nM

## Cc1cnc2c(NC(=O)c3cc4cn([C@H]5CC[C@H](CN6CCC(c7ccc(C8CCC(=O)NC8=O)cc7F)CC6)CC5)nc4cc3OC(C)C)cnn2c1 (some centres unmarked) [Example 114, 2-((1r,4r)-4-((4-(4-(2,6-dioxopiperidin-3-yl)-2-fluorophenyl)piperidin-1-yl)methyl)cyclohexyl)-6-isopropoxy-N-(6-methylpyrazolo[1,5-a]pyrimidin-3-yl)-2H-indazole-5-carboxamide]
IRAK4
  DC50: 10 to 100 nM
IKZF1
  DC50: > 10000 nM

## CC(C)Oc1cc2nc(C3CCN(C(=O)CC4CCN(c5ncc(NC6CCC(=O)NC6=O)cc5F)CC4)CC3)cn2cc1C(=O)Nc1cccc(C(F)F)n1 (centres unmarked) [Example 81, N-[6-(difluoromethyl)-2-pyridyl]-2-[1-[2-[1-[5-[(2,6-dioxo-3-piperidyl)amino]-3-fluoro-2-pyridyl]-4-piperidyl]acetyl]-4-piperidyl]-7-isopropoxy-imidazo[1,2-a]pyridine-6-carboxamide]
IRAK4
  DC50: 10 to 100 nM
IKZF1
  DC50: > 10000 nM

## CC(C)Oc1cc2nn([C@H]3CC[C@H](CN4CCC(c5ccc6c(c5)n(C)c(=O)n6C5CCC(=O)NC5=O)C(F)(F)C4)CC3)cc2cc1C(=O)Nc1cnn2cccnc12 (some centres unmarked) [Example 123, 2-((1r,4r)-4-((4-(1-(2,6-dioxopiperidin-3-yl)-3-methyl-2-oxo-2,3-dihydro-1H-benzo[d]imidazol-5-yl)-3,3-difluoropiperidin-1-yl)methyl)cyclohexyl)-6-isopropoxy-N-(pyrazolo[1,5-a]pyrimidin-3-yl)-2H-indazole-5-carboxamide]
IRAK4
  DC50: < 10 nM
IKZF1
  DC50: > 10000 nM

## CC(C)Oc1cc2nn([C@H]3CC[C@H](CN4CCC(c5ccc6c(c5)n(C)c(=O)n6C5CCC(=O)NC5=O)C(F)(F)C4)CC3)cc2cc1C(=O)Nc1cccn([C@H]2C[C@H]2F)c1=O (stereo partly drawn) [Example 122, 2-((1r,4S)-4-((4-(1-(2,6-dioxopiperidin-3-yl)-3-methyl-2-oxo-2,3-dihydro-1H-benzo[d]imidazol-5-yl)-3,3-difluoropiperidin-1-yl)methyl)cyclohexyl)-N-(1-((1S,2R)-2-fluorocyclopropyl)-2-oxo-1,2-dihydropyridin-3-yl)-6-isopropoxy-2H-indazole-5-carboxamide]
IRAK4
  DC50: < 10 nM
IKZF1
  DC50: > 10000 nM

## CC(C)Oc1cc2nn(C3CCN(C(=O)CC4CCN(c5ccc(C6CCC(=O)NC6=O)cn5)CC4)CC3)cc2cc1C(=O)Nc1cnn2cccnc12 (centres unmarked) [Example 147, 2-(1-(2-(1-(5-(2,6-dioxopiperidin-3-yl)pyridin-2-yl)piperidin-4-yl)acetyl)piperidin-4-yl)-6-isopropoxy-N-(pyrazolo[1,5-a]pyrimidin-3-yl)-2H-indazole-5-carboxamide]
IRAK4
  DC50: < 10 nM
IKZF1
  DC50: > 10000 nM

## CC(C)Oc1cc2nc(C3CCN(C(=O)CC4(O)CCN(c5ccc(NC6CCC(=O)NC6=O)cc5)CC4)CC3)cn2cc1C(=O)Nc1cccc(C(F)F)n1 (centres unmarked) [Example 71, N-[6-(difluoromethyl)-2-pyridyl]-2-[1-[2-[1-[4-[(2,6-dioxo-3-piperidyl)amino]phenyl]-4-hydroxy-4-piperidyl]acetyl]-4-piperidyl]-7-isopropoxy-imidazo[1,2-a]pyridine-6-carboxamide]
IRAK4
  DC50: 10 to 100 nM
IKZF1
  DC50: > 10000 nM

## Nc1cccc2c1C(=O)N(C1CCC(=O)NC1=O)C2=O (centres unmarked) [pomalidomide, reference compound]
IKZF1; NCIH929.11 cells, 6 hours
  degradation of IKZF1: 90%

## CC(C)Oc1cc2nc([C@H]3CC[C@H](CN4CCC(c5ccc6c(N7CCC(=O)NC7=O)nn(C)c6c5)CC4)CC3)cn2cc1C(=O)Nc1cccc(C(F)F)n1 [Example 38, N-[6-(difluoromethyl)-2-pyridyl]-2-[4-[[4-[3-(2,4-dioxohexahydropyrimidin-1-yl)-1-methyl-indazol-6-yl]-1-piperidyl]methyl]cyclohexyl]-7-isopropoxy-imidazo[1,2-a]pyridine-6-carboxamide]
IRAK4
  DC50: < 10 nM
IKZF1
  DC50: > 10000 nM

## CC(C)Oc1cc2nn([C@H]3CC[C@H](CN4CC5(CCN(c6ncc(C7CCC(=O)NC7=O)cc6F)CC5)C4)CC3)cc2cc1C(=O)Nc1cccn([C@H]2C[C@H]2F)c1=O (stereo partly drawn) [Example 121, 2-((1r,4S)-4-((7-(5-(2,6-dioxopiperidin-3-yl)-3-fluoropyridin-2-yl)-2,7-diazaspiro[3.5]nonan-2-yl)methyl)cyclohexyl)-N-(1-((1S,2R)-2-fluorocyclopropyl)-2-oxo-1,2-dihydropyridin-3-yl)-6-isopropoxy-2H-indazole-5-carboxamide]
IRAK4
  DC50: < 10 nM
IKZF1
  DC50: > 10000 nM

## CC(C)Oc1cc2nc(C3CCN(C(=O)CC4(O)CCN(c5cc(F)c(NC6CCC(=O)NC6=O)cc5F)CC4)CC3)cn2cc1C(=O)Nc1cccc(C(F)F)n1 (centres unmarked) [Example 70, N-[6-(difluoromethyl)-2-pyridyl]-2-[1-[2-[1-[4-[(2,6-dioxo-3-piperidyl)amino]-2,5-difluoro-phenyl]-4-hydroxy-4-piperidyl]acetyl]-4-piperidyl]-7-isopropoxy-imidazo[1,2-a]pyridine-6-carboxamide]
IRAK4
  DC50: < 10 nM
IKZF1
  DC50: > 10000 nM

## CC(C)Oc1cc2nc(C3CCN(CC(=O)N4CCC(c5ccc(NC6CCC(=O)NC6=O)cc5)CC4)CC3)cn2cc1C(=O)Nc1cnn2cccnc12 (centres unmarked) [Example 104, 2-[1-[2-[4-[4-[(2,6-dioxo-3-piperidyl)amino]phenyl]-1-piperidyl]-2-oxo-ethyl]-4-piperidyl]-7-isopropoxy-N-pyrazolo[1,5-a]pyrimidin-3-yl-imidazo[1,2-a]pyridine-6-carboxamide]
IRAK4
  DC50: < 10 nM
IKZF1
  DC50: > 10000 nM

## CC(C)Oc1cc2nc(C3CCN(C(=O)CC4(O)CCN(c5ccc(NC6CCC(=O)NC6=O)cc5F)CC4)CC3)cn2cc1C(=O)Nc1cccc(C(F)F)n1 (centres unmarked) [Example 69, N-[6-(difluoromethyl)-2-pyridyl]-2-[1-[2-[1-[4-[(2,6-dioxo-3-piperidyl)amino]-2-fluoro-phenyl]-4-hydroxy-4-piperidyl]acetyl]-4-piperidyl]-7-isopropoxy-imidazo[1,2-a]pyridine-6-carboxamide]
IRAK4
  DC50: < 10 nM
IKZF1
  DC50: > 10000 nM

## CC(C)Oc1cc2nc([C@H]3CC[C@H](CN4CCC(c5ccc(C6CCC(=O)NC6=O)cc5)C(F)(F)C4)CC3)cn2cc1C(=O)Nc1cccc(C(F)F)n1 (some centres unmarked) [Example 25, N-[6-(difluoromethyl)-2-pyridyl]-2-[4-[[4-[4-(2,6-dioxo-3-piperidyl)phenyl]-3,3-difluoro-1-piperidyl]methyl]cyclohexyl]-7-isopropoxy-imidazo[1,2-a]pyridine-6-carboxamide]
IRAK4
  DC50: 100 to 500 nM

## CC(C)Oc1cc2nc(C3CCN(C(=O)CN4CCC(c5ccc(NC6CCC(=O)NC6=O)cn5)CC4)CC3)cn2cc1C(=O)Nc1cccc(C(F)F)n1 (centres unmarked) [Example 84, N-[6-(difluoromethyl)-2-pyridyl]-2-[1-[2-[4-[5-[(2,6-dioxo-3-piperidyl)amino]-2-pyridyl]-1-piperidyl]acetyl]-4-piperidyl]-7-isopropoxy-imidazo[1,2-a]pyridine-6-carboxamide]
IRAK4
  DC50: 10 to 100 nM

## CC(C)Oc1cc2nn(C3CCN(C(=O)CC4(O)CCN(c5ncc(C6CCC(=O)NC6=O)cc5F)CC4)CC3)cc2cc1C(=O)Nc1cccn([C@H]2C[C@H]2F)c1=O (stereo partly drawn) [Example 152, 2-(1-(2-(1-(5-(2,6-dioxopiperidin-3-yl)-3-fluoropyridin-2-yl)-4-hydroxypiperidin-4-yl)acetyl)piperidin-4-yl)-N-(1-((S,2R)-2-fluorocyclopropyl)-2-oxo-1,2-dihydropyridin-3-yl)-6-isopropoxy-2H-indazole-5-carboxamide]
IRAK4
  DC50: < 10 nM

## CC(C)Oc1cc2nc([C@H]3CC[C@H](CN4CCC(c5cccc(NC6CCC(=O)NC6=O)c5F)CC4)CC3)cn2cc1C(=O)Nc1cccc(C(F)F)n1 (some centres unmarked) [Example 22, N-[6-(difluoromethyl)-2-pyridyl]-2-[4-[[4-[3-[(2,6-dioxo-3-piperidyl)amino]-2-fluoro-phenyl]-1-piperidyl]methyl]cyclohexyl]-7-isopropoxy-imidazo[1,2-a]pyridine-6-carboxamide]
IRAK4
  DC50: 10 to 100 nM
